Target: METTL3/METTL14 (Homo sapiens, UniProt Q86U44)
Assay: METTL3-14 standard enzyme assay (3H-SAM flashplate)
Conditions: METTL3 biochemical assay
Description: METTL3-14 Standard Enzyme Assay
Assays were performed in a 25 μl-volume in 384-well V-bottom polypropylene microplates (Greiner Bio-One, cat. No. 781280) at ambient temperature. Optimized 1× assay buffer was 20 mM HEPES pH 7.5, 50 mM KCl, 250 μM MgCl2, 1 mM DTT, 0.01% Tween, 0.01% BSG, 0.004 U/μl RNAseOUT (cat. No. 10777019, ThermoFisher Scientific, Waltham, MA). For compound screening METTL3/METTL14 (final concentration, f.c.=2.5 nM) was added using a Multidrop Combi (ThermoFisher Scientific, Waltham, MA) and preincubated for 5 min. Reactions were started by adding 3′ biotinylated RNA (UCUGGACUAAA-biotin) (f.c.=100 nM) and 3H-SAM (f.c.=100 nM) substrates. Reactions proceeded for 30 minutes and were quenched with excess non-radioactive SAM (f.c.=15 μM). The reactions were then transferred to streptavidin-coated flashplates and incubated for 2 hours at 25° C. Following two washing cycles with 0.1% Tween-20, the plates were sealed and read on a TopCount (PerkinElmer, Waltham, MA) plate-based scintillation counter. For determination of kinetic parameters, reaction times were optimized so that measurements were taken during the initial velocity phase of the reaction.

Chain of METTL3/METTL14 (Q86U44 whole entry, species assumed): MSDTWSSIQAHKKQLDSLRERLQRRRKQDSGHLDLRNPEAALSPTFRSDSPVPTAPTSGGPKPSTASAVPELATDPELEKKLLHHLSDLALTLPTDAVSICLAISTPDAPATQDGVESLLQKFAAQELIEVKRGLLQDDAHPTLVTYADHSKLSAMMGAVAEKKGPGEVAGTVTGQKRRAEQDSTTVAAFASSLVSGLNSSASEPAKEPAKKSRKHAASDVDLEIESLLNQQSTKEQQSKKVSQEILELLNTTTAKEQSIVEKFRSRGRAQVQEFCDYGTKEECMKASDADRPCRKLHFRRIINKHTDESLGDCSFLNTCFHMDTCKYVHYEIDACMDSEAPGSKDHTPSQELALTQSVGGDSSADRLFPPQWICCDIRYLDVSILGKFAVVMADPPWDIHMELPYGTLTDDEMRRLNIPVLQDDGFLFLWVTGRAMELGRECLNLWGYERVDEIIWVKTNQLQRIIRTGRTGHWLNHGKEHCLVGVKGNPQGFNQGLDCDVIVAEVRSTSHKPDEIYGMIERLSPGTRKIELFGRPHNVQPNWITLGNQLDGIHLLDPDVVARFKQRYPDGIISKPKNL
Chain of METTL3/METTL14 (Q9HCE5 whole entry partner, species assumed): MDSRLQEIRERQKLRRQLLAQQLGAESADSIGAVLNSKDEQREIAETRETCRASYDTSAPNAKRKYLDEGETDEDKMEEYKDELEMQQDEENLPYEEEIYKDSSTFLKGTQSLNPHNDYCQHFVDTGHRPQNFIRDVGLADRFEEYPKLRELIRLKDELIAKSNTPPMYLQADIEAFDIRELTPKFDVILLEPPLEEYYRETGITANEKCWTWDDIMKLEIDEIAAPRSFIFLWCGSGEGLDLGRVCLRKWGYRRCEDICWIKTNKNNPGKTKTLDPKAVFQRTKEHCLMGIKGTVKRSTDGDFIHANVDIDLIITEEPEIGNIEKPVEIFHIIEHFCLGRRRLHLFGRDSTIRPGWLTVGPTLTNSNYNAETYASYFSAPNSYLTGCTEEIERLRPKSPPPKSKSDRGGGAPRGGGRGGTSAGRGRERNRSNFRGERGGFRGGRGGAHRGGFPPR

## Cc1ccc(Cl)c(NC(=O)[C@H]2O[C@@H](n3cc(-c4ccn(C)n4)c4c(N)ncnc43)[C@H](O)[C@@H]2O)c1 [Compound I-72]
Table 4
  IC50: ≥ 1 µM

## Cc1cc(NC(=O)[C@H]2O[C@@H](n3cc(-c4ccn(C)n4)c4c(N)ncnc43)[C@H](O)[C@@H]2O)n(C)n1 [Compound I-86]
Table 4
  IC50: ≥ 1 µM

## COc1ccccc1[C@H](C)NC(=O)[C@H]1O[C@@H](n2cc(-c3ccn(C)n3)c3c(N)ncnc32)[C@H](O)[C@@H]1O [Compound I-119]
Table 4
  IC50: 0.1 to 1 µM

## Cn1ccc(-c2cn([C@@H]3O[C@H](C(=O)NCCC4CCCCC4)[C@@H](O)[C@H]3O)c3ncnc(N)c23)n1 [Compound I-120]
Table 4
  IC50: 0.1 to 1 µM

## Cn1ccc(-c2cn([C@@H]3O[C@H](C(=O)NCCCn4ccnc4)[C@@H](O)[C@H]3O)c3ncnc(N)c23)n1 [Compound I-102]
Table 4
  IC50: 0.1 to 1 µM

## Cn1ccc(-c2cn([C@@H]3O[C@H](C(=O)NC(Cc4ccccc4)c4ccccc4)[C@@H](O)[C@H]3O)c3ncnc(N)c23)n1 (some centres unmarked) [Compound I-115]
Table 4
  IC50: 0.1 to 1 µM

## Cc1cc(CNC(=O)[C@H]2O[C@@H](n3cc(-c4ccn(C)n4)c4c(N)ncnc43)[C@H](O)[C@@H]2O)ccc1F [Compound I-77]
Table 4
  IC50: ≥ 1 µM

## Cn1ccc(-c2cn([C@@H]3O[C@H](C(=O)Nc4ccc(-c5ccccc5)cn4)[C@@H](O)[C@H]3O)c3ncnc(N)c23)n1 [Compound I-79]
Table 4
  IC50: ≥ 1 µM

## Cc1nsc(NC(=O)[C@H]2O[C@@H](n3cc(-c4ccn(C)n4)c4c(N)ncnc43)[C@H](O)[C@@H]2O)n1 [Compound I-83]
Table 4
  IC50: ≥ 1 µM

## Cc1ccc2nc(NC(=O)[C@H]3O[C@@H](n4cc(-c5ccn(C)n5)c5c(N)ncnc54)[C@H](O)[C@@H]3O)sc2c1 [Compound I-68]
Table 4
  IC50: ≥ 1 µM

## Cn1ccc(-c2cn([C@@H]3O[C@H](C(=O)NC4CCN(S(C)(=O)=O)CC4)[C@@H](O)[C@H]3O)c3ncnc(N)c23)n1 [Compound I-95]
Table 4
  IC50: 0.1 to 1 µM

## Cn1ccc(-c2cn([C@@H]3O[C@H](C(=O)NCC4CCOC4)[C@@H](O)[C@H]3O)c3ncnc(N)c23)n1 (some centres unmarked) [Compound I-89]
Table 4
  IC50: ≥ 1 µM

## Cn1ccc(-c2cn([C@@H]3O[C@H](C(=O)Nc4cccc5nsnc45)[C@@H](O)[C@H]3O)c3ncnc(N)c23)n1 [Compound I-118]
Table 4
  IC50: 0.1 to 1 µM

## CN(C)S(=O)(=O)c1cccc(NC(=O)[C@H]2O[C@@H](n3cc(-c4ccn(C)n4)c4c(N)ncnc43)[C@H](O)[C@@H]2O)c1 [Compound I-90]
Table 4
  IC50: ≥ 1 µM

## Nc1ncnc2c1c(-n1cccn1)cn2[C@@H]1C[C@H](C(=O)Nc2ccc3ccc(N4CCC4)nc3c2)[C@@H](O)C1 [Compound I-14]
Table 3
  IC50: 0.01 to 0.1 µM

## Cn1ccc(-c2cn([C@@H]3O[C@H](C(=O)Nc4ccc(OC(F)F)cc4)[C@@H](O)[C@H]3O)c3ncnc(N)c23)n1 [Compound I-132]
Table 4
  IC50: 0.1 to 1 µM

## Cn1ccc(-c2cn([C@@H]3O[C@H](C(=O)Nc4ccc(-c5ccccc5)cc4)[C@@H](O)[C@H]3O)c3ncnc(N)c23)n1 [Compound I-98]
Table 4
  IC50: 0.1 to 1 µM

## Cc1cc(F)ccc1NC(=O)[C@H]1O[C@@H](n2cc(-c3ccn(C)n3)c3c(N)ncnc32)[C@H](O)[C@@H]1O [Compound I-117]
Table 4
  IC50: 0.1 to 1 µM

## Cn1ccc(-c2cn([C@@H]3O[C@H](C(=O)Nc4ccnn4C)[C@@H](O)[C@H]3O)c3ncnc(N)c23)n1 [Compound I-109]
Table 4
  IC50: 0.1 to 1 µM

## Cn1ccc(-c2cn([C@@H]3O[C@H](C(=O)NCCc4ccc5ccccc5c4)[C@@H](O)[C@H]3O)c3ncnc(N)c23)n1 [Compound I-134]
Table 4
  IC50: 0.1 to 1 µM

## Cn1cc(NC(=O)[C@H]2O[C@@H](n3cc(-c4ccn(C)n4)c4c(N)ncnc43)[C@H](O)[C@@H]2O)cn1 [Compound I-104]
Table 4
  IC50: 0.1 to 1 µM

## CC(C)OCCNC(=O)[C@H]1O[C@@H](n2cc(-c3ccn(C)n3)c3c(N)ncnc32)[C@H](O)[C@@H]1O [Compound I-73]
Table 4
  IC50: ≥ 1 µM

## Nc1ncnc2c1c(-n1cccn1)cn2[C@H]1C[C@H](O)[C@@H](C(=O)Nc2cc(NC3CCC3)ccn2)O1 [Compound I-17, (2S,3S,5R)-5-[4-amino-5-(1H-pyrazol-1-yl)-7H-pyrrolo[2,3-d]pyrimidin-7-yl]-N-[4-(cyclobutylamino)pyridin-2-yl]-3-hydroxyoxolane-2-carboxamide]
Table 3
  IC50: ≥ 1 µM

## Cn1ccc(-c2cn([C@@H]3O[C@H](C(=O)Nc4cccc(N5CCOCC5)c4)[C@@H](O)[C@H]3O)c3ncnc(N)c23)n1 [Compound I-74]
Table 4
  IC50: ≥ 1 µM

## Cc1noc(NC(=O)[C@H]2O[C@@H](n3cc(-c4ccn(C)n4)c4c(N)ncnc43)[C@H](O)[C@@H]2O)c1C [Compound I-75]
Table 4
  IC50: ≥ 1 µM

## CNC(=O)c1ccc(NC(=O)[C@H]2O[C@@H](n3cc(-c4ccn(C)n4)c4c(N)ncnc43)[C@H](O)[C@@H]2O)cc1 [Compound I-136]
Table 4
  IC50: 0.1 to 1 µM

## Cn1ccc(-c2cn([C@@H]3O[C@H](C(=O)NCCN4CCNC4=O)[C@@H](O)[C@H]3O)c3ncnc(N)c23)n1 [Compound I-64]
Table 4
  IC50: ≥ 1 µM

## Cn1ccc(-c2cn([C@@H]3O[C@H](C(=O)NCc4ccc5ccccc5c4)[C@@H](O)[C@H]3O)c3ncnc(N)c23)n1 [Compound I-131]
Table 4
  IC50: 0.1 to 1 µM

## COc1ccc(NC(=O)[C@H]2O[C@@H](n3cc(-c4ccn(C)n4)c4c(N)ncnc43)[C@H](O)[C@@H]2O)cc1Cl [Compound I-140]
Table 4
  IC50: 0.01 to 0.1 µM

## Cn1ccc(-c2cn([C@@H]3O[C@H](C(=O)NCCC4CCOCC4)[C@@H](O)[C@H]3O)c3ncnc(N)c23)n1 [Compound I-96]
Table 4
  IC50: 0.1 to 1 µM

## Cn1ccc(-c2cn([C@@H]3O[C@H](C(=O)Nc4ccc5ccccc5n4)[C@@H](O)[C@H]3O)c3ncnc(N)c23)n1 [Compound I-66]
Table 4
  IC50: ≥ 1 µM

## Cn1ccc(-c2cn([C@@H]3O[C@H](C(=O)Nc4nccc5ccccc45)[C@@H](O)[C@H]3O)c3ncnc(N)c23)n1 [Compound I-78]
Table 4
  IC50: ≥ 1 µM

## Cn1ccc(-c2cn([C@@H]3O[C@H](C(=O)NCCN4CCOCC4)[C@@H](O)[C@H]3O)c3ncnc(N)c23)n1 [Compound I-65]
Table 4
  IC50: ≥ 1 µM

## Cn1ccc(-c2cn([C@@H]3O[C@H](C(=O)Nc4ccc(Oc5ccccc5)cc4)[C@@H](O)[C@H]3O)c3ncnc(N)c23)n1 [Compound I-100]
Table 4
  IC50: 0.1 to 1 µM

## Cn1ccc(-c2cn([C@@H]3O[C@H](C(=O)Nc4ccc5nsnc5c4)[C@@H](O)[C@H]3O)c3ncnc(N)c23)n1 [Compound I-94]
Table 4
  IC50: 0.1 to 1 µM

## Cn1ccc(-c2cn([C@@H]3O[C@H](C(=O)NCCc4ccncc4)[C@@H](O)[C@H]3O)c3ncnc(N)c23)n1 [Compound I-112]
Table 4
  IC50: 0.1 to 1 µM

## Cc1cc(C#N)ccc1NC(=O)[C@H]1O[C@@H](n2cc(-c3ccn(C)n3)c3c(N)ncnc32)[C@H](O)[C@@H]1O [Compound I-113]
Table 4
  IC50: 0.1 to 1 µM

## Cc1cccnc1NC(=O)[C@H]1O[C@@H](n2cc(-c3ccn(C)n3)c3c(N)ncnc32)[C@H](O)[C@@H]1O [Compound I-93]
Table 4
  IC50: ≥ 1 µM

## Nc1ncnc2c1c(-n1cccn1)cn2[C@H]1C[C@H](O)[C@@H](C(=O)Nc2ccc3ccc(NC4CCC4)nc3c2)O1 [Compound I-16]
Table 3
  IC50: < 0.01 µM

## CCc1cccc(NC(=O)[C@H]2O[C@@H](n3cc(-c4ccn(C)n4)c4c(N)ncnc43)[C@H](O)[C@@H]2O)n1 [Compound I-85]
Table 4
  IC50: ≥ 1 µM

## Cc1cc(CNC(=O)[C@H]2O[C@@H](n3cc(-c4ccn(C)n4)c4c(N)ncnc43)[C@H](O)[C@@H]2O)no1 [Compound I-106]
Table 4
  IC50: 0.1 to 1 µM

## Cn1ccc(-c2cn([C@@H]3O[C@H](C(=O)NCCc4ccccc4Cl)[C@@H](O)[C@H]3O)c3ncnc(N)c23)n1 [Compound I-133]
Table 4
  IC50: 0.1 to 1 µM

## CCCCc1ccc(NC(=O)[C@H]2O[C@@H](n3cc(-c4ccn(C)n4)c4c(N)ncnc43)[C@H](O)[C@@H]2O)cc1 [Compound I-110]
Table 4
  IC50: 0.1 to 1 µM

## CN1CCN(c2ccc(NC(=O)[C@H]3O[C@@H](n4cc(-c5ccn(C)n5)c5c(N)ncnc54)[C@H](O)[C@@H]3O)nc2)CC1 [Compound I-127]
Table 4
  IC50: 0.1 to 1 µM

## Cn1ccc(-c2cn([C@@H]3O[C@H](C(=O)Nc4ccc5c(c4)OCCCO5)[C@@H](O)[C@H]3O)c3ncnc(N)c23)n1 [Compound I-124]
Table 4
  IC50: 0.1 to 1 µM

## Cn1ccc(-c2cn([C@@H]3O[C@H](C(=O)NCCCN4CCCC4=O)[C@@H](O)[C@H]3O)c3ncnc(N)c23)n1 [Compound I-129]
Table 4
  IC50: 0.1 to 1 µM

## Cn1ccc(-c2cn([C@@H]3O[C@H](C(=O)Nc4ccc(-n5cnnn5)cc4)[C@@H](O)[C@H]3O)c3ncnc(N)c23)n1 [Compound I-138]
Table 4
  IC50: 0.1 to 1 µM

## Cn1ccc(-c2cn([C@@H]3O[C@H](C(=O)Nc4cccc(C(F)(F)F)c4)[C@@H](O)[C@H]3O)c3ncnc(N)c23)n1 [Compound I-76]
Table 4
  IC50: ≥ 1 µM

## Cn1ccc(-c2cn([C@@H]3O[C@H](C(=O)Nc4nccs4)[C@@H](O)[C@H]3O)c3ncnc(N)c23)n1 [Compound I-82]
Table 4
  IC50: ≥ 1 µM

## Cn1ccc(-c2cn([C@@H]3O[C@H](C(=O)NC4Cc5ccccc5C4)[C@@H](O)[C@H]3O)c3ncnc(N)c23)n1 [Compound I-126]
Table 4
  IC50: 0.1 to 1 µM

## Cn1ccc(-c2cn([C@@H]3O[C@H](C(=O)N[C@@H](CO)c4ccccc4)[C@@H](O)[C@H]3O)c3ncnc(N)c23)n1 [Compound I-88]
Table 4
  IC50: ≥ 1 µM

## Cn1ccc(-c2cn([C@@H]3O[C@H](C(=O)NCc4ccccc4-n4cccn4)[C@@H](O)[C@H]3O)c3ncnc(N)c23)n1 [Compound I-121]
Table 4
  IC50: 0.1 to 1 µM

## Cn1ccc(-c2cn([C@@H]3O[C@H](C(=O)Nc4ccc5ccccc5c4)[C@@H](O)[C@H]3O)c3ncnc(N)c23)n1 [Compound I-114]
Table 4
  IC50: 0.1 to 1 µM

From patent US20240051985A1, “METTL3 MODULATORS” (ACCENT THERAPEUTICS, INC., priority 2020, published 2024)
